According to ChEMBL document CHEMBL3885861, “Open TG-GATES”:

Species on record: Rattus norvegicus
Experiment: Open TG-GATES - Regimen: Daily Repeat
Assay type: toxicity, organism-based, Sprague-Dawley
Set-up: regimen Daily Repeat, gender Male, age 6 weeks
Settings: in vivo, po, 1200 mg/kg, route gavage, dose level Middle; for APTT / Bas / Eos / Fbg / Hb / Ht / Lym / MCH / MCHC / MCV / Mono / Neu / PT / Plat / RBC / Ret / WBC: tissue Blood; for KIDNEY_L / KIDNEY_R / KIDNEY_TOTAL: tissue Kidney; for LIVER: tissue Liver; for A/G / ALP / ALT / AST / BUN / CRE / Ca / Cl / DBIL / GLC / IP / K / LDH / Na / PL / RALB / TBIL / TC / TG / TP / gamma-GTP: tissue Plasma

## CCO [ALCOHOL]
72 h, time 3 day
  TERMINAL_BW: 236.1 g
  APTT: 17.5 s
  Bas: 0%
  Eos: 1.2%
  Fbg: 209 mg/dL
  Hb: 13.9 g/dL
  Ht: 41%
  Lym: 74.6%
  MCH: 21.6 pg
  MCHC: 33.8%
  MCV: 64 fL
  Mono: 5.8%
  Neu: 18%
  PT: 11.3 s
  Plat: 124.3 x10_4/uL
  RBC: 642.4 x10_4/ul
  Ret: 7.7%
  WBC: 106.2 x10_2/uL
  KIDNEY_L: 1.1 g
  KIDNEY_R: 1.1 g
  KIDNEY_TOTAL: 2.1 g
  LIVER: 11.5 g
  A/G: 2.3
  ALP: 854.8 IU/L
  ALT: 38.2 IU/L
  AST: 65 IU/L
  BUN: 20.2 mg/dL
  CRE: 0.6 mg/dL
  Ca: 11.2 mg/dL
  Cl: 104 meq/L
  DBIL: 0.026 mg/dL
  GLC: 208.2 mg/dL
  IP: 9 mg/dL
  K: 4.7 meq/L
  LDH: 113.6 IU/L
  Na: 141 meq/L
  PL: 145.6 mg/dL
  RALB: 4.1 g/dL
  TBIL: 0.3 mg/dL
  TC: 74.2 mg/dL
  TG: 89.2 mg/dL
  TP: 5.8 g/dL
  gamma-GTP: 1.4 IU/L
[…], time 7 day
  TERMINAL_BW: 268.6 g
  APTT: 18.1 s
  Bas: 0%
  Eos: 0.8%
  Fbg: 227.4 mg/dL
  Hb: 14.3 g/dL
  Ht: 42.2%
  Lym: 81.8%
  MCH: 21.3 pg
  MCHC: 33.8%
  MCV: 62.9 fL
  Mono: 6.2%
  Neu: 11.4%
  PT: 11 s
  Plat: 127.6 x10_4/uL
  RBC: 670.6 x10_4/ul
  Ret: 6.1%
  WBC: 112 x10_2/uL
  KIDNEY_L: 1.1 g
  KIDNEY_R: 1.2 g
  KIDNEY_TOTAL: 2.3 g
  LIVER: 13.2 g
  A/G: 2.3
  ALP: 946.6 IU/L
  ALT: 37.4 IU/L
  AST: 64.8 IU/L
  BUN: 20.8 mg/dL
  CRE: 0.5 mg/dL
  Ca: 10.6 mg/dL
  Cl: 103.8 meq/L
  DBIL: 0 mg/dL
  GLC: 202 mg/dL
  IP: 8.4 mg/dL
  K: 4.8 meq/L
  LDH: 108.4 IU/L
  Na: 141 meq/L
  PL: 154.4 mg/dL
  RALB: 4.1 g/dL
  TBIL: 0.3 mg/dL
  TC: 70.6 mg/dL
  TG: 132.4 mg/dL
  TP: 6 g/dL
  gamma-GTP: 1.4 IU/L
[…], time 14 day
  TERMINAL_BW: 302.2 g
  APTT: 18.2 s
  Bas: 0%
  Eos: 1.2%
  Fbg: 227 mg/dL
  Hb: 15.4 g/dL
  Ht: 45.5%
  Lym: 80%
  MCH: 20.6 pg
  MCHC: 33.9%
  MCV: 60.8 fL
  Mono: 5.4%
  Neu: 13.6%
  PT: 11.4 s
  Plat: 115.9 x10_4/uL
  RBC: 749 x10_4/ul
  Ret: 4.5%
  WBC: 119.1 x10_2/uL
  KIDNEY_L: 1.2 g
  KIDNEY_R: 1.2 g
  KIDNEY_TOTAL: 2.4 g
  LIVER: 13.7 g
  A/G: 1.8
  ALP: 821.6 IU/L
  ALT: 33 IU/L
  AST: 62.2 IU/L
  BUN: 19.2 mg/dL
  CRE: 0.5 mg/dL
  Ca: 10.8 mg/dL
  Cl: 105 meq/L
  DBIL: 0.018 mg/dL
  GLC: 205.6 mg/dL
  IP: 7.4 mg/dL
  K: 4.5 meq/L
  LDH: 104.4 IU/L
  Na: 141.8 meq/L
  PL: 159.8 mg/dL
  RALB: 3.9 g/dL
  TBIL: 0.3 mg/dL
  TC: 79 mg/dL
  TG: 114.2 mg/dL
  TP: 6.1 g/dL
  gamma-GTP: 1 IU/L
[…], time 28 day
  TERMINAL_BW: 371.8 g
  APTT: 17.5 s
  Bas: 0%
  Eos: 1.4%
  Fbg: 224 mg/dL
  Hb: 15.4 g/dL
  Ht: 46.3%
  Lym: 73.2%
  MCH: 19.1 pg
  MCHC: 33.3%
  MCV: 57.3 fL
  Mono: 6.6%
  Neu: 18.8%
  PT: 11.1 s
  Plat: 104.5 x10_4/uL
  RBC: 809 x10_4/ul
  Ret: 7%
  WBC: 96.6 x10_2/uL
  KIDNEY_L: 1.3 g
  KIDNEY_R: 1.4 g
  KIDNEY_TOTAL: 2.7 g
  LIVER: 14.7 g
  A/G: 1.5
  ALP: 558.4 IU/L
  ALT: 32.8 IU/L
  AST: 64 IU/L
  BUN: 21.4 mg/dL
  CRE: 0.6 mg/dL
  Ca: 10.2 mg/dL
  Cl: 107.4 meq/L
  DBIL: 0 mg/dL
  GLC: 221.2 mg/dL
  IP: 6.6 mg/dL
  K: 4.4 meq/L
  LDH: 83 IU/L
  Na: 141 meq/L
  PL: 151.4 mg/dL
  RALB: 3.6 g/dL
  TBIL: 0.3 mg/dL
  TC: 70.6 mg/dL
  TG: 181.6 mg/dL
  TP: 6.1 g/dL
  gamma-GTP: 1.4 IU/L
